Test results reported in ChEMBL document CHEMBL1909046, “DrugMatrix in vitro pharmacology data”.

What was measured:
[1] = biological target: Cytochrome P450 3A4 (Homo sapiens, UniProt P08684); conditions: bti-tn-5b1-4; further: in other assays of this panel Not Active means under 50% inhibition at 10 µM
[2] = biological target: T1, Estrogen receptor (Homo sapiens, UniProt P03372); conditions: sf9; further: in other assays of this panel Not Active means under 50% inhibition at 10 µM
T1 sequence (P03372 whole entry): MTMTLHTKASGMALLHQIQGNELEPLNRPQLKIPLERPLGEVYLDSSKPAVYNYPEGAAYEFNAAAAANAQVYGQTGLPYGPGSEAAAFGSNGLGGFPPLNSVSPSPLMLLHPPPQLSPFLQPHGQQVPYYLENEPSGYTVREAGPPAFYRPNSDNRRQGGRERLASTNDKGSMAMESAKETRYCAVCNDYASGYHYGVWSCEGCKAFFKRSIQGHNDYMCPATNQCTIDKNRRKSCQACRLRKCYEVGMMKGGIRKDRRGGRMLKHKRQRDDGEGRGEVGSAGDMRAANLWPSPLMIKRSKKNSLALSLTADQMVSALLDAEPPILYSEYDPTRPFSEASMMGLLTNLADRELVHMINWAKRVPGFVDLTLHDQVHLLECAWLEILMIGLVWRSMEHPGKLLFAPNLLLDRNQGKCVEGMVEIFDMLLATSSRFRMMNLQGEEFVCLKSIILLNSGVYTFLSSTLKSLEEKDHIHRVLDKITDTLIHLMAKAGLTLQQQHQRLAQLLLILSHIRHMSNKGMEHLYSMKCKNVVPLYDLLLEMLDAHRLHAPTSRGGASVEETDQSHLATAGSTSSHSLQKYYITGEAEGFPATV

[3] = biological target: D(1A) dopamine receptor (Homo sapiens, UniProt P21728); test: DRUGMATRIX: Dopamine D1 radioligand binding (ligand: [3H] SCH-23390); assay type: cell membranes, CHO, Membrane; conditions: cho; Not Active = under 50% inhibition at 10 µM
Chain of D(1A) dopamine receptor (P21728 whole entry): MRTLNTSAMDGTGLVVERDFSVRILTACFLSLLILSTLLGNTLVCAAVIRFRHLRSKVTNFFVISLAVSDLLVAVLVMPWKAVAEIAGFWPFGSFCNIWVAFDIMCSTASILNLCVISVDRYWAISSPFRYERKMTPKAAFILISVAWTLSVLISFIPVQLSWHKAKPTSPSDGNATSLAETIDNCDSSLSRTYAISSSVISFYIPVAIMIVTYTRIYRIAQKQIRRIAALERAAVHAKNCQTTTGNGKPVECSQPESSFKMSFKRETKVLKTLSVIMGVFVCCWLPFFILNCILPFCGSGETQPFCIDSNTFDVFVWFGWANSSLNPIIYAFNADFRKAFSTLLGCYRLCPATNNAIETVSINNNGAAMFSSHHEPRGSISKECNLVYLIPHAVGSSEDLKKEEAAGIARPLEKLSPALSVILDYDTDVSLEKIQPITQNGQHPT

[4] = biological target: T2, 5-hydroxytryptamine receptor 2C (Homo sapiens, UniProt P28335); test: DRUGMATRIX: Serotonin (5-Hydroxytryptamine) 5-HT2C radioligand binding (ligand: [3H] Mesulergine); assay type: cell membranes, CHO-K1, Membrane; conditions: Not Active = under 50% inhibition at 10 µM
T2 sequence (P28335 whole entry): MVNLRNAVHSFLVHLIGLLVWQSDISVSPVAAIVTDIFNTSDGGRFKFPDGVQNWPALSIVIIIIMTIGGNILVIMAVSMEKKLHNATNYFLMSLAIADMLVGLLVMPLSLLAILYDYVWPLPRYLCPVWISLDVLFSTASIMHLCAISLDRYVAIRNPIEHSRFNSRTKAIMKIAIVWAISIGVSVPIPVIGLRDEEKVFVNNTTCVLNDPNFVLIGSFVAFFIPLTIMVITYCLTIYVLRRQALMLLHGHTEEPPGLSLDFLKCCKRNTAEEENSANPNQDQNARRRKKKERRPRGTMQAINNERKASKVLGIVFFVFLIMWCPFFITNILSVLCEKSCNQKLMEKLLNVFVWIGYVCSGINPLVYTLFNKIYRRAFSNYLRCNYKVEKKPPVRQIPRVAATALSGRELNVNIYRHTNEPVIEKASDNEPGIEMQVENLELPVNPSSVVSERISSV

[5] = DRUGMATRIX: GABAA, Flunitrazepam, Central radioligand binding (ligand: [3H] Flunitrazepam); assay type: cell membranes, Rattus norvegicus, Wistar, Brain, Membrane; conditions: Not Active = under 50% inhibition at 10 µM
[6] = biological target: T3, Alpha-2A adrenergic receptor (Homo sapiens, UniProt P08913); assay type: cell membranes, Sf9, Membrane; further: in other assays of this panel Not Active means under 50% inhibition at 10 µM
T3 sequence (P08913 whole entry): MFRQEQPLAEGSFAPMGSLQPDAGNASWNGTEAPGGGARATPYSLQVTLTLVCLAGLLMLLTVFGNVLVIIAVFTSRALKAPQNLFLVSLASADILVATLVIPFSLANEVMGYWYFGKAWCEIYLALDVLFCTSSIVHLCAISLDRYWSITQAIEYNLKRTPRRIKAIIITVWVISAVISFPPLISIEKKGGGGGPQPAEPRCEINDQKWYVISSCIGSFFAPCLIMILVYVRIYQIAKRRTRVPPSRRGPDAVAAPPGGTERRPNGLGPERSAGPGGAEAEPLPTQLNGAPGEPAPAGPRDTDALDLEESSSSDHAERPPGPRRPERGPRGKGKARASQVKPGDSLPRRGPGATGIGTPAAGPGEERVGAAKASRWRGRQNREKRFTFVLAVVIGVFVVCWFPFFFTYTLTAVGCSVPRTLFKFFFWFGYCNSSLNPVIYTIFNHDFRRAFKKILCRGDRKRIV

[7] = biological target: Cytochrome P450 2C9 (Homo sapiens, UniProt P11712); conditions: bti-tn-5b1-4; further: in other assays of this panel Not Active means under 50% inhibition at 10 µM
Chain of Cytochrome P450 2C9 (P11712 whole entry): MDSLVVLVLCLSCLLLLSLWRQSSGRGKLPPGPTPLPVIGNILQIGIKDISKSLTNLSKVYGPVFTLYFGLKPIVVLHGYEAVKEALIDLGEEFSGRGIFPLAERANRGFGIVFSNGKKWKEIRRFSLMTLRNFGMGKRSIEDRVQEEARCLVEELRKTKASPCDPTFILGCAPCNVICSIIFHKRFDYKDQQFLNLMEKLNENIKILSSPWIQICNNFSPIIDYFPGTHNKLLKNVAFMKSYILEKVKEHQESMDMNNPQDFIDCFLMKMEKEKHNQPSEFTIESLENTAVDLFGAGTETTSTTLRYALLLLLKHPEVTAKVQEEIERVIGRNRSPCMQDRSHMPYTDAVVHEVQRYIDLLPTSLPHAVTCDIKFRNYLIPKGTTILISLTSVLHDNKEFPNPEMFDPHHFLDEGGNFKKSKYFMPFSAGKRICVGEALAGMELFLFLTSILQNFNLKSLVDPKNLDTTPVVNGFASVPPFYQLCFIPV

Chain of Cytochrome P450 3A4 (P08684 whole entry): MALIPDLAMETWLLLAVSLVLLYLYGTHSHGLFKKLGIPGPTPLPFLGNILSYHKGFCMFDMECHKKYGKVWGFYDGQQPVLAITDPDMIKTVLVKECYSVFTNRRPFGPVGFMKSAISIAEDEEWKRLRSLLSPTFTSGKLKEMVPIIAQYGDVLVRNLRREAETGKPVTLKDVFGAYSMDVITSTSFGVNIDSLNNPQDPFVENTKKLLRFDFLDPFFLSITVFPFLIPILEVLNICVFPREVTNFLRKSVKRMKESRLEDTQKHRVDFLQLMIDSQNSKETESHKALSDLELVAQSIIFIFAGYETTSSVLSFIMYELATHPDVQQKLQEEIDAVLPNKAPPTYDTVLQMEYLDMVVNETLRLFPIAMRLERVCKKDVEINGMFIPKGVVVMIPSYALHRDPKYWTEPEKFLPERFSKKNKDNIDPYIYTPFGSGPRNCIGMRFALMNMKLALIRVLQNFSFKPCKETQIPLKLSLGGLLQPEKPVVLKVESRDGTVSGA

Row | Compound | IC50 [1] | Ki [1] | IC50 [2] | IC50 [3] | IC50 ([4]; cho-k1) | IC50 [5] | Ki [5] | IC50 ([6]; sf9) | IC50 [7] | Ki [7] | IC50 ([6]; read-out: IC50) | Ki ([6]; read-out: Ki) | IC50 ([4]; read-out: IC50) | Ki ([4]; read-out: Ki) | IC50 ([5]; read-out: IC50) | Ki ([5]; read-out: Ki) | Ki [2] | Ki [3] | Ki ([4]; cho-k1) | Ki ([6]; sf9)
1 | CN1C(=O)OC(C)(C)C1=O [TRIMETHADIONE] | Not Active | Not Active | Not Active | Not Active | Not Active | Not Active | Not Active | Not Active |  |  |  |  |  |  |  |  |  |  |  | 
2 | OC[C@@H](O)[C@@H](O)[C@H](O)[C@H](O)CO [MANNITOL] | Not Active | Not Active | Not Active | Not Active | Not Active | Not Active | Not Active | Not Active | Not Active | Not Active |  |  |  |  |  |  |  |  |  | 
3 | CC[C@H](C)[C@@H](CO[C@@H](Cc1ccccc1)C(=O)N[C@@H](CCS(C)(=O)=O)C(=O)OC(C)C)NC[C@@H](N)CS |  |  | Not Active | Not Active | Not Active | Not Active | Not Active |  | Not Active | Not Active | 432 nM | 162 nM |  |  |  |  |  |  |  | 
4 | CC(C)(C)NC[C@H](O)COc1cccc2c1CCCC2=O [LEVOBUNOLOL] | Not Active | Not Active | Not Active | Not Active | Not Active | Not Active | Not Active | Not Active | Not Active | Not Active |  |  |  |  |  |  |  |  |  | 
5 | C[N+]1(C)[C@@H]2C[C@@H](OC(=O)[C@H](CO)c3ccccc3)C[C@H]1[C@@H]1O[C@@H]12.[Br-] [METHSCOPOLAMINE BROMIDE] | Not Active | Not Active | Not Active | Not Active | Not Active | Not Active | Not Active | Not Active |  |  |  |  |  |  |  |  |  |  |  | 
6 | Cc1nnc(NS(=O)(=O)c2ccc(N)cc2)s1 [SULFAMETHIZOLE] | Not Active | Not Active | Not Active | Not Active | Not Active | Not Active | Not Active | Not Active | Not Active | Not Active |  |  |  |  |  |  |  |  |  | 
7 | Cc1cnc(NC(=O)C2=C(O)c3ccccc3S(=O)(=O)N2C)s1 [MELOXICAM] | Not Active | Not Active | Not Active | Not Active | Not Active | Not Active | Not Active | Not Active | Not Active | Not Active |  |  |  |  |  |  |  |  |  | 
8 | CC1=C(/C=C/C(C)=C/C=C/C(C)=C/C(=O)O)C(C)(C)CCC1 [TRETINOIN] | Not Active | Not Active | Not Active | Not Active | Not Active | Not Active | Not Active | Not Active | Not Active | Not Active |  |  |  |  |  |  |  |  |  | 
9 | Cc1cccc(C)c1NC(=O)C(C)N (configuration not stated) [TOCAINIDE] | Not Active | Not Active | Not Active | Not Active | Not Active | Not Active | Not Active | Not Active | Not Active | Not Active |  |  |  |  |  |  |  |  |  | 
10 | COC(=O)Nc1nc2ccc(C(=O)c3ccccc3)cc2[nH]1 [MEBENDAZOLE] | Not Active | Not Active | Not Active | Not Active | Not Active | Not Active | Not Active | Not Active | Not Active | Not Active |  |  |  |  |  |  |  |  |  | 
11 | CCN(CC)CCNC(=O)c1cc(Cl)c(N)cc1OC [METOCLOPRAMIDE] | Not Active | Not Active | Not Active | Not Active |  | Not Active | Not Active |  | Not Active | Not Active | 2720 nM | 1020 nM | 2380 nM | 1250 nM |  |  |  |  |  | 
12 | Cc1ccc(Cl)c(Nc2ccccc2C(=O)O)c1Cl [MECLOFENAMIC ACID] | Not Active | Not Active | Not Active | Not Active | Not Active | Not Active | Not Active | Not Active | Not Active | Not Active |  |  |  |  |  |  |  |  |  | 
13 | O=[As][O-].[Na+] [SODIUM ARSENITE] | Not Active | Not Active | Not Active | Not Active | Not Active | Not Active | Not Active | Not Active | Not Active | Not Active |  |  |  |  |  |  |  |  |  | 
14 | CC(=O)O[C@]1(C(C)=O)CC[C@H]2[C@@H]3C[C@H](C)C4=CC(=O)CC[C@]4(C)[C@H]3CC[C@@]21C [MEDROXYPROGESTERONE ACETATE] | Not Active | Not Active | Not Active | Not Active | Not Active |  |  | Not Active | Not Active | Not Active |  |  |  |  | 7740 nM | 6300 nM |  |  |  | 
15 | CC(O)C(=O)O (configuration not stated) [LACTIC ACID] | Not Active | Not Active | Not Active | Not Active | Not Active | Not Active | Not Active | Not Active | Not Active | Not Active |  |  |  |  |  |  |  |  |  | 
16 | Cc1ccnc(NS(=O)(=O)c2ccc(N)cc2)n1 [SULFAMERAZINE] | Not Active | Not Active | Not Active | Not Active | Not Active | Not Active | Not Active | Not Active | Not Active | Not Active |  |  |  |  |  |  |  |  |  | 
17 | LEAD(IV) ACETATE | Not Active | Not Active | Not Active | Not Active | Not Active | Not Active | Not Active | Not Active | Not Active | Not Active |  |  |  |  |  |  | Not Active | Not Active | Not Active | Not Active
18 | Oc1ccc(/C=C/c2cc(O)cc(O)c2)cc1 [RESVERATROL] |  |  | Not Active | Not Active | Not Active | Not Active | Not Active | Not Active |  |  |  |  |  |  |  |  |  |  |  | 
19 | CC[C@@]1(O)C(=O)OCc2c1cc1n(c2=O)Cc2cc3c(CN(C)C)c(O)ccc3nc2-1 [TOPOTECAN] |  |  | Not Active | Not Active | Not Active | Not Active | Not Active | Not Active | Not Active | Not Active |  |  |  |  |  |  |  |  |  | 
20 | CC[C@H](C)C(=O)O[C@H]1CCC=C2C=C[C@H](C)[C@H](CC[C@@H]3C[C@@H](O)CC(=O)O3)[C@H]21 [MEVASTATIN] | Not Active | Not Active | Not Active | Not Active | Not Active | Not Active | Not Active | Not Active | Not Active | Not Active |  |  |  |  |  |  |  |  |  | 
21 | Nc1nc(N)c2nc(-c3ccccc3)c(N)nc2n1 |  |  | Not Active | Not Active | Not Active | Not Active | Not Active | Not Active |  |  |  |  |  |  |  |  |  |  |  | 
22 | Cc1[nH]c(=O)c(C#N)cc1-c1ccncc1 [MILRINONE] | Not Active | Not Active | Not Active | Not Active | Not Active | Not Active | Not Active | Not Active | Not Active | Not Active |  |  |  |  |  |  |  |  |  | 
23 | CCOC(=O)C1=C(C)NC(C)=C(C(=O)OCC)C1c1ccccc1/C=C/C(=O)OC(C)(C)C [LACIDIPINE] |  |  | Not Active | Not Active | Not Active | Not Active | Not Active | Not Active |  |  |  |  |  |  |  |  |  |  |  | 
